According to patent publication US20030229105A1, “Treatment of autoimmune disorders” (Cyclacel Limited, priority 2002, published 2003):

Columns and labels:
HTLV-1 = experiment: p19 gag ELISA of TNF-α-treated HTLV-1-infected MT-2 cells; type: cell-based; conditions: TNF-α 2 h, then drug, 7 days
[1] = system: HIV-1-infected ACH2 cells; experiment: Annexin V and PI double staining flow cytometry; type: cell-based; conditions: ACH2, especially with TNF-α; 10 μM, 48 h
Text: (§1) Apoptosis and necrosis are two pathways that lead to cell death. Apoptosis is characterized by a series of morphological features, including cell shrinkage, plasma membrane blebbing, phosphatidylserine translocation to the outer leaflet of the plasma membrane, nuclear condensation, and DNA fragmentation (1). To distinguish apoptotic from necrotic cells, we performed a flow cytometry experiment using Annexin V and PI double staining. Annexin V is a sensitive probe for phosphatidylserine, and PI was used to detect membrane loss, since membrane loss leads to the accessibility of PI staining to DNA. […] At 48 h after drug treatment, most of the apoptotic cells were found at the late stage of apoptosis and not in the necrotic population (FIG. 6A). […] Absorbances of the samples were read every 60 min in a Spectramax 250 microplate reader at 405 nm.
(§2) Cells were collected, stained with PI and FITC-Annexin V, and analyzed by FACS. […] The antigen-antibody complexes were detected using ^125I-labeled protein G. (C) Cells were washed in PBS and analyzed for caspase-3 activity using a colorimetric protease assay kit (Chemicon). […] Absorbances of samples were read every 60 min in a microplate reader at 405 nm.
Apoptosis was determined by using Annexin V and PI double staining (Annexin V-FITC; PharMingen International). […] Cells were acquired and analyzed using CELLQuest software (Becton Dickinson).

cdk4 = cdk4 (Homo sapiens, UniProt P11802); conditions: cited from earlier work
cdk6 = cdk6 (Homo sapiens, UniProt Q00534); conditions: cited from earlier work
cdk9-cyclin T complex = cdk9-cyclin T complex (Homo sapiens, UniProt P50750); experiment: cdk9-cyclin T immunoprecipitate CTD kinase assay from treated cells; conditions: 10 μM (FIG. 5B)
[2] = system: HIV-1 genomic, structural, and regulatory RNAs; experiment: Northern blot with whole genomic HIV-1 probe in ACH2 cells; type: cell-based; conditions: ACH2, TNF-α, then increasing concentrations (1, 10, 50 μM)
Procedure: At days 2, 4, and 6, the supernatants were collected, and the released HIV-1 particles were measured by using a p24 antigen ELISA assay. (B) Twenty micrograms of total RNA was separated on an RNA-formaldehyde-agarose gel, transferred, and probed with full-length labeled HIV-1 genome RNA. The hybridized genomic RNA, singly spliced (structural), and doubly spliced (regulatory) RNAs were exposed and counted by using Molecular Dynamic PhosphorImager software.

PARP = experiment: Immunoblot of PARP cleavage; type: cell-based; conditions: induced ACH2 cells exposed to Roscovitine
Text: as §1, with “6A). We next investigated whether the apoptotic cascade through the caspase-3 pathway was activated under drug treatment.” for “6A).”
as §2

[3] = system: U1 cells (latently HIV-1 infected); experiment: Cell cycle analysis (PI staining, FACS) of HIV-1-infected U1 cells; conditions: U1 cells plus TNF-α (FIG. 2C)
caspase-3 = experiment: Caspase-3 colorimetric protease assay (DEVD-pNA) on cell lysates; type: cell-based; conditions: induced ACH2 cells, 37° C., 3 h
Text: Apoptosis and necrosis are two pathways that lead to cell death. Apoptosis is characterized by a series of morphological features, including cell shrinkage, plasma membrane blebbing, phosphatidylserine translocation to the outer leaflet of the plasma membrane, nuclear condensation, and DNA fragmentation (1). To distinguish apoptotic from necrotic cells, we performed a flow cytometry experiment using Annexin V and PI double staining. Annexin V is a sensitive probe for phosphatidylserine, and PI was used to detect membrane loss, since membrane loss leads to the accessibility of PI staining to DNA. […] Absorbances of the samples were read every 60 min in a Spectramax 250 microplate reader at 405 nm.
as §2
Cells were washed in PBS and analyzed for caspase-3 activity by using a CPP32/Caspase-3 Colorimetric Protease Assay Kit (Chemicon, Temecula, Calif.) according to the manufacturers' instructions. […] Protein concentrations of the lysates were determined by using the bicinchoninic acid assay reagent (Pierce, Rockford, Ill.). […]

[4] = system: U937 uninfected monocytic parental cell line; experiment: Cell cycle analysis (PI staining, FACS) of uninfected U937 cells; conditions: U937 cells (FIG. 2C)

cdk6, sequence (Q00534 whole entry): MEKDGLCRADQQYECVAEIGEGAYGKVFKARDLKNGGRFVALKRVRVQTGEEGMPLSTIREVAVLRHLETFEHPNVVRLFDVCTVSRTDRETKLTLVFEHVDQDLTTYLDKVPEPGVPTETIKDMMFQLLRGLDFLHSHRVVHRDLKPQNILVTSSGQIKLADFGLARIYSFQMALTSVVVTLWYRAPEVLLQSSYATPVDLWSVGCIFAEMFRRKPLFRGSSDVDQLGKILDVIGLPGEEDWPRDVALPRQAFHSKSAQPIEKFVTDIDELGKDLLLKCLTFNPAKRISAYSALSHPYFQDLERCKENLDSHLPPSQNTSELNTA
cdk6, sequence (P30279 whole entry partner): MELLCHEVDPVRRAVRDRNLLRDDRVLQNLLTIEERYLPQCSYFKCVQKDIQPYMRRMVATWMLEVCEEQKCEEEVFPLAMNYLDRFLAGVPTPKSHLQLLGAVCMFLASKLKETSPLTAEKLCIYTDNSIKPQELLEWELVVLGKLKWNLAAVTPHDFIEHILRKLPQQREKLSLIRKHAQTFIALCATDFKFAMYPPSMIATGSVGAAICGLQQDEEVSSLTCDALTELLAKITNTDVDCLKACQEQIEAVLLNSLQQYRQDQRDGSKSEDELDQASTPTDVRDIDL
cdk4, sequence (P11802 whole entry, species assumed): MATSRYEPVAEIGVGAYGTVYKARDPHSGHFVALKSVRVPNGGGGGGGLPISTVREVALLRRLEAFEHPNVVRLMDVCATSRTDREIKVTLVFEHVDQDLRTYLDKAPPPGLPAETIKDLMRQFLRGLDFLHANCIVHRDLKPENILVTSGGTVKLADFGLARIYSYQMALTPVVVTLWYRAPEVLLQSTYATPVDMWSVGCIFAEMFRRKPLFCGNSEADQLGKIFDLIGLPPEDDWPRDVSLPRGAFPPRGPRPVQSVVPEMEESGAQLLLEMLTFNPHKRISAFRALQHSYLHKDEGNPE
cdk4, sequence (P24385 whole entry partner, species assumed): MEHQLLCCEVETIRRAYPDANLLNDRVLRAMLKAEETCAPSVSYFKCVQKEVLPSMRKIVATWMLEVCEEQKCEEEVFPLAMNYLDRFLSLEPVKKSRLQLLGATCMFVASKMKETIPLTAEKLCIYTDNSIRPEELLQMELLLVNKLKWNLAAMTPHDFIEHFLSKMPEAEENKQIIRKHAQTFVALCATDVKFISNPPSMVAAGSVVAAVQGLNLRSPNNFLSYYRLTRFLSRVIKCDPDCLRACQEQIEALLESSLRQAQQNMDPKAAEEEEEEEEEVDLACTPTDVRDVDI
cdk9-cyclin T complex, sequence (P50750 whole entry): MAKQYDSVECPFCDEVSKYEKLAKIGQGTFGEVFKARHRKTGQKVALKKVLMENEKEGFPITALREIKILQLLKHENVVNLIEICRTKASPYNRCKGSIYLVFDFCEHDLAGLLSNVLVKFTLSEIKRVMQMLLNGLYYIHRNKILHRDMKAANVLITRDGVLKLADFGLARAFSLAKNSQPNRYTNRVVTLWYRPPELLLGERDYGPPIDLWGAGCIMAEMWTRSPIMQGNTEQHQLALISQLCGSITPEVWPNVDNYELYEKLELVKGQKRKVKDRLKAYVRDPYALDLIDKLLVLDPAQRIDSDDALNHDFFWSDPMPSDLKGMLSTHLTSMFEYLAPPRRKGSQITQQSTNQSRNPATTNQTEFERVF
cdk9-cyclin T complex, sequence (O60563 whole entry partner): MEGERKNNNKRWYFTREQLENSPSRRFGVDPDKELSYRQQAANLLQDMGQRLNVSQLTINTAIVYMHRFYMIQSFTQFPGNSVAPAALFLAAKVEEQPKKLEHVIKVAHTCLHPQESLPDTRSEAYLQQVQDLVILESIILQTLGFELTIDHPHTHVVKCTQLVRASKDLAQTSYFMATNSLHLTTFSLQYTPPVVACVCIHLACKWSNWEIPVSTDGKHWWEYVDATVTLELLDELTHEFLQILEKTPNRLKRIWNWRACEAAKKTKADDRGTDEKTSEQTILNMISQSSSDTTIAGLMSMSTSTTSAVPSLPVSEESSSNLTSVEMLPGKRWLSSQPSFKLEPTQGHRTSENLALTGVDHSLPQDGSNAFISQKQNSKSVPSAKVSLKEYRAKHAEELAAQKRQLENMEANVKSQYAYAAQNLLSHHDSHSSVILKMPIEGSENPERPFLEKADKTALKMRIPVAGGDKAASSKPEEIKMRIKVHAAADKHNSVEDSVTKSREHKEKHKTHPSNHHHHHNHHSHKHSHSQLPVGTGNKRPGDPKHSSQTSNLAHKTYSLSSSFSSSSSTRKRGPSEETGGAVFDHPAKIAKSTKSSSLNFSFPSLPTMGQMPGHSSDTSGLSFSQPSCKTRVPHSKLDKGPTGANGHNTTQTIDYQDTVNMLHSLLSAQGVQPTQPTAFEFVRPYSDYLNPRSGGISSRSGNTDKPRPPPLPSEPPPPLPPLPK

For CC(C)[C@H](CO)Nc1nc(Nc2cccc(Cl)c2)c2ncn(C(C)C)c2n1 [Purvalanol A], the “inhibition of HTLV-1 replication (p19 gag)” value (HTLV-1) was “inhibited HTLV-1 replication”.

For Roscovitine, the “number of apoptotic (Annexin V-stained) cells” value [1] is given as “remarkable increase in the number of apoptotic cells”, the “reported inhibition of cdk4” value (cdk4) is given as “not cdk4 or -6” and the “reported inhibition of cdk6” value (cdk6) is given as “not cdk4 or -6”. The “cdk9 levels and activity on phosphorylation of RNA Pol II CTD” value (cdk9-cyclin T complex) was “decrease of cdk9 levels and its activity”, the “HIV-1 genomic, structural, and regulatory RNA levels” value [2] was “dramatically decreased” and the PARP cleavage (PARP) was “almost completely cleaved”. For the same molecule, the “apoptosis in U1 cells” value [3] was “abundance of the apoptotic population”, the caspase-3 activity increase (caspase-3) was ~5 fold and the “apoptosis in uninfected parental cells” value [4] was “no apparent apoptosis”.
